Earlier results in PMC8129988 (Inorganic Chemistry Frontiers, 2021).
Where two headings read alike, the source gives them in different places.

Tests used:
A431 = conditions: cited from earlier work
H1975 = conditions: cited from earlier work
[1] = normoxic as well as hypoxic conditions

| SMILES | cytotoxic activity (A431; [1]) | cytotoxic activity (H1975; [1]) | cytotoxic activity (A431) | cytotoxic activity (H1975) |
| --- | --- | --- | --- | --- |
| CC(=O)[CH-]C(C)=O.CC(=O)[CH-]C(C)=O.NCCN.[Co+2] [[Co(II)(acac)2en]] | no significant cytotoxic activity | no significant cytotoxic activity | – | – |
| CC(=O)[CH-]C(C)=O.CC(=O)[CH-]C(C)=O.F[P-](F)(F)(F)(F)F.NCCN.[Co+3] [[Co(III)(acac)2en]PF6] | no significant cytotoxic activity | no significant cytotoxic activity | – | – |
| [Cl-].[Cl-].[Co+2] [CoCl2] | – | – | no significant cytotoxic activity | no significant cytotoxic activity |
